One experiment concerns HT-29. Briefly: cells. The conditions noted are these: Homo sapiens, HT-29, 72 h.
In the next experiment the test system is U-87 MG. Put plainly: Antiproliferative activity against human U87MG cells after 72 hrs by MTT assay. A general note: Formazan colour is commonly taken as a measure of viable cells.
The subject of a further experiment is A549. Put plainly: cells. The conditions noted are these: Homo sapiens, A549, 72 h.
The test system of the next experiment is NCI-H460. Put plainly: Antiproliferative activity against human H460 cells after 72 hrs by MTT assay. The conditions noted are these: NCI-H460, 72 h.
The subject of a further experiment is MKN-45. Put plainly: cells. The conditions noted are these: Homo sapiens, MKN-45, 72 h.
Experiment [1] deals with Hepatocyte growth factor receptor (Homo sapiens, UniProt P08581). Put plainly: Inhibition of c-Met (unknown origin) using poly (Glu, Tyr) 4:1 as substrate after 30 mins by HTRF assay. A general note: In TR-FRET formats the signal depends on donor and acceptor labels being close together.
The target of experiment [2] is Macrophage-stimulating protein receptor (Homo sapiens, UniProt Q04912). Briefly: Inhibition of Ron (unknown origin) using poly (Glu, Tyr) 4:1 as substrate after 30 mins by HTRF assay.
Experiment [3] has as its target Platelet-derived growth factor receptor alpha (Homo sapiens, UniProt P16234). Briefly: Inhibition of PDGFRalpha (unknown origin) using poly (Glu, Tyr) 4:1 as substrate after 30 mins by HTRF assay.
The target in experiment [4] is Mast/stem cell growth factor receptor Kit (Homo sapiens, UniProt P10721). Put plainly: Inhibition of c-Kit (unknown origin) using poly (Glu, Tyr) 4:1 as substrate after 30 mins by HTRF assay.
Experiment [5] has as its target T1, Receptor-type tyrosine-protein kinase FLT3 (Homo sapiens, UniProt P36888).
T1 sequence (P36888 whole entry): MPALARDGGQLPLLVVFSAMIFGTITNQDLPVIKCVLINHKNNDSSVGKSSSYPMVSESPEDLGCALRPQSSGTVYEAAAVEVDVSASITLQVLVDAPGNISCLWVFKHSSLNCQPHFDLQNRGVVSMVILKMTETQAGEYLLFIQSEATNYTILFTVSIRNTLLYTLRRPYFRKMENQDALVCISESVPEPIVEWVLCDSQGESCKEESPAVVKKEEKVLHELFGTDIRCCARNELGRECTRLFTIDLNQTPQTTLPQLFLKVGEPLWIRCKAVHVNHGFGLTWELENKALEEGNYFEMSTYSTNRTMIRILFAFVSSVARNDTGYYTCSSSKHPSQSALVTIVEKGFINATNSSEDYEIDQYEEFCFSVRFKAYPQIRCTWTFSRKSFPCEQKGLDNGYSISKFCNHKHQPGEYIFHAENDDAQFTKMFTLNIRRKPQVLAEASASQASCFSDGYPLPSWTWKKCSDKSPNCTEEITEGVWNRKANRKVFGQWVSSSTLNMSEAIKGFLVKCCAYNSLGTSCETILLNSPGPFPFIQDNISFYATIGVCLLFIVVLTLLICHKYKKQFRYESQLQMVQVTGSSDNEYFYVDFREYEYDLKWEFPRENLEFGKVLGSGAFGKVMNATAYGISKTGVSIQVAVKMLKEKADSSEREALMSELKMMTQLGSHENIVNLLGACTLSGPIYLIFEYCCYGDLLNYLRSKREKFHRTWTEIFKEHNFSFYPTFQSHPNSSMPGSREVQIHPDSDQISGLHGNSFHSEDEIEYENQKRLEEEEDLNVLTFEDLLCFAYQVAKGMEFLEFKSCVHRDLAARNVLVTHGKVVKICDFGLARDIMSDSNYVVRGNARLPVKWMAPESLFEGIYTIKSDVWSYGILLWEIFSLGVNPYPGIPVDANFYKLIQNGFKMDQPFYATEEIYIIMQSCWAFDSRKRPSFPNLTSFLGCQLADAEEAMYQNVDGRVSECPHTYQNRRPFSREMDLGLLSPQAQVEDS
Put plainly: Inhibition of Flt3 (unknown origin) using poly (Glu, Tyr) 4:1 as substrate after 30 mins by HTRF assay.

The target in experiment [6] is ALK tyrosine kinase receptor (Homo sapiens, UniProt Q9UM73). Put plainly: Inhibition of ALK (unknown origin) using poly (Glu, Tyr) 4:1 as substrate after 30 mins by HTRF assay.
In experiment [7] the target is Vascular endothelial growth factor receptor 2 (Homo sapiens, UniProt P35968). Briefly: Inhibition of VEGFR2 (unknown origin) using poly (Glu, Tyr) 4:1 as substrate after 30 mins by HTRF assay.
The target of experiment [8] is Epidermal growth factor receptor (Homo sapiens, UniProt P00533). Briefly: Inhibition of EGFR (unknown origin) using poly (Glu, Tyr) 4:1 as substrate after 30 mins by HTRF assay.

In general, IC50 refers to the midpoint of a concentration-inhibition curve. Lower therefore signals inhibition by little substance.

SMILES strings stand for the structures.

Sequence of Hepatocyte growth factor receptor (P08581 whole entry): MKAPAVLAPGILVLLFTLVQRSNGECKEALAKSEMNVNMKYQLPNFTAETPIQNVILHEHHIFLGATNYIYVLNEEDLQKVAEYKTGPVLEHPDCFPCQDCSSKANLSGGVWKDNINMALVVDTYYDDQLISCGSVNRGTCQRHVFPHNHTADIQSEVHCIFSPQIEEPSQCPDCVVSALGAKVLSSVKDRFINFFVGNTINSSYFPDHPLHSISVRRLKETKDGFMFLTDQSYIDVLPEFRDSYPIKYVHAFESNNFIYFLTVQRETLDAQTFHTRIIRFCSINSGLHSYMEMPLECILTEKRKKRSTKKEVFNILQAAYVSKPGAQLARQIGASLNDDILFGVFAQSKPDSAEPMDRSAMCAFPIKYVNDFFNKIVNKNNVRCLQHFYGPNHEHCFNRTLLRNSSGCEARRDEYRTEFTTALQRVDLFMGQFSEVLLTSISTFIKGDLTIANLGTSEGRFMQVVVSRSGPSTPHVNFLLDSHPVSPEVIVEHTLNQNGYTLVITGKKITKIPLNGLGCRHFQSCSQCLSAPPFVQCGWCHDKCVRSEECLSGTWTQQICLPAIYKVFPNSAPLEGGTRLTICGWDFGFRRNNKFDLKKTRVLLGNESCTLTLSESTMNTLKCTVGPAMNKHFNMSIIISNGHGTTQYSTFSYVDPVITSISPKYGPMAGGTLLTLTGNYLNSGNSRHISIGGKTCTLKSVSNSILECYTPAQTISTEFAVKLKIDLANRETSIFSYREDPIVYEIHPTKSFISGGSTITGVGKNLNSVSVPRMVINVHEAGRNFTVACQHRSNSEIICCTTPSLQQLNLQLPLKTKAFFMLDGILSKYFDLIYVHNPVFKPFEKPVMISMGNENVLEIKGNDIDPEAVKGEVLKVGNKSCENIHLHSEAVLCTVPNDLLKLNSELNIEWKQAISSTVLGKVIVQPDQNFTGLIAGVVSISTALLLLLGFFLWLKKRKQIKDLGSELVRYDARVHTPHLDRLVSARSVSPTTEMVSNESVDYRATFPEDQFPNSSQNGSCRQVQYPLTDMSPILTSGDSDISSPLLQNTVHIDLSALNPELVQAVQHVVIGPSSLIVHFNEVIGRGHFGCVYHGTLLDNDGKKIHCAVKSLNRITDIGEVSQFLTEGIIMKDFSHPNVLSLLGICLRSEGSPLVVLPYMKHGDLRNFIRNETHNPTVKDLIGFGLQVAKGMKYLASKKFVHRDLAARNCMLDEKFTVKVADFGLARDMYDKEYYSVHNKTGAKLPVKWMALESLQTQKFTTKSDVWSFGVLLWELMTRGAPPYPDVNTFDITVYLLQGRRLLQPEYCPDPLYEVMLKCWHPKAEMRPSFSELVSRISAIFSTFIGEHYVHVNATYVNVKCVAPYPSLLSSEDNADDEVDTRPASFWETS
Sequence of Vascular endothelial growth factor receptor 2 (P35968 whole entry): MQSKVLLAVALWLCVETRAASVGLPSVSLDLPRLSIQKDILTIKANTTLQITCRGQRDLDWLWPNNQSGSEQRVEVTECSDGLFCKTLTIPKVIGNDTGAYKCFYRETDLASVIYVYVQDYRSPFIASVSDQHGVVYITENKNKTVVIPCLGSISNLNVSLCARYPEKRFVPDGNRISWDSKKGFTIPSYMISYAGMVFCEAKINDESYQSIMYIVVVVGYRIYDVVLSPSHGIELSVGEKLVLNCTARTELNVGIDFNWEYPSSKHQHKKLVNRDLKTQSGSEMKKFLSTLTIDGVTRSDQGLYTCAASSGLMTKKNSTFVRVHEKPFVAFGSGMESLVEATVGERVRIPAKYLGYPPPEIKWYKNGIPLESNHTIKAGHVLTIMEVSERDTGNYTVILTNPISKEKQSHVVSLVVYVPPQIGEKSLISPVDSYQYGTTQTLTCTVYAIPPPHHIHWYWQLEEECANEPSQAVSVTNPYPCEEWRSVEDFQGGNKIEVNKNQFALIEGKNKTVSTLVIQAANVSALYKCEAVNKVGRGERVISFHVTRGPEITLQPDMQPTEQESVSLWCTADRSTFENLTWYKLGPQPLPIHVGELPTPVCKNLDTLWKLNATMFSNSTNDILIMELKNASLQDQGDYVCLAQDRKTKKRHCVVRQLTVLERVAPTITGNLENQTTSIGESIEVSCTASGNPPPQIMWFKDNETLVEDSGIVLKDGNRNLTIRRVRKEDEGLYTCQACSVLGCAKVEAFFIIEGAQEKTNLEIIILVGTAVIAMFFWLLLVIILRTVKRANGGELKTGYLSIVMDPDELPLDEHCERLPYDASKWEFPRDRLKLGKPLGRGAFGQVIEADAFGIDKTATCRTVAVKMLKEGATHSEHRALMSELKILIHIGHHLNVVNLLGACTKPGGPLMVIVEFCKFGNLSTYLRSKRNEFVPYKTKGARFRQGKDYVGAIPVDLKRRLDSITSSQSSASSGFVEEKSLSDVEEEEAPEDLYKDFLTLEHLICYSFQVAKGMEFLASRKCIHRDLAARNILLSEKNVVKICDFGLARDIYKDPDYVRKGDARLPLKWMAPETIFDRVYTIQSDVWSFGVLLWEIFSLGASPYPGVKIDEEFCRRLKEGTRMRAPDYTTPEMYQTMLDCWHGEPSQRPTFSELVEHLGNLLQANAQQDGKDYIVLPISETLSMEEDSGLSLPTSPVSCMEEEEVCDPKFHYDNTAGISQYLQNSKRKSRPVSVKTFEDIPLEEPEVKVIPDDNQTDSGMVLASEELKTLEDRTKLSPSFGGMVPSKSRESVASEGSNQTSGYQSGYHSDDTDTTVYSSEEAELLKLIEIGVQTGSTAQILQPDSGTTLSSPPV
Sequence of Epidermal growth factor receptor (P00533 whole entry): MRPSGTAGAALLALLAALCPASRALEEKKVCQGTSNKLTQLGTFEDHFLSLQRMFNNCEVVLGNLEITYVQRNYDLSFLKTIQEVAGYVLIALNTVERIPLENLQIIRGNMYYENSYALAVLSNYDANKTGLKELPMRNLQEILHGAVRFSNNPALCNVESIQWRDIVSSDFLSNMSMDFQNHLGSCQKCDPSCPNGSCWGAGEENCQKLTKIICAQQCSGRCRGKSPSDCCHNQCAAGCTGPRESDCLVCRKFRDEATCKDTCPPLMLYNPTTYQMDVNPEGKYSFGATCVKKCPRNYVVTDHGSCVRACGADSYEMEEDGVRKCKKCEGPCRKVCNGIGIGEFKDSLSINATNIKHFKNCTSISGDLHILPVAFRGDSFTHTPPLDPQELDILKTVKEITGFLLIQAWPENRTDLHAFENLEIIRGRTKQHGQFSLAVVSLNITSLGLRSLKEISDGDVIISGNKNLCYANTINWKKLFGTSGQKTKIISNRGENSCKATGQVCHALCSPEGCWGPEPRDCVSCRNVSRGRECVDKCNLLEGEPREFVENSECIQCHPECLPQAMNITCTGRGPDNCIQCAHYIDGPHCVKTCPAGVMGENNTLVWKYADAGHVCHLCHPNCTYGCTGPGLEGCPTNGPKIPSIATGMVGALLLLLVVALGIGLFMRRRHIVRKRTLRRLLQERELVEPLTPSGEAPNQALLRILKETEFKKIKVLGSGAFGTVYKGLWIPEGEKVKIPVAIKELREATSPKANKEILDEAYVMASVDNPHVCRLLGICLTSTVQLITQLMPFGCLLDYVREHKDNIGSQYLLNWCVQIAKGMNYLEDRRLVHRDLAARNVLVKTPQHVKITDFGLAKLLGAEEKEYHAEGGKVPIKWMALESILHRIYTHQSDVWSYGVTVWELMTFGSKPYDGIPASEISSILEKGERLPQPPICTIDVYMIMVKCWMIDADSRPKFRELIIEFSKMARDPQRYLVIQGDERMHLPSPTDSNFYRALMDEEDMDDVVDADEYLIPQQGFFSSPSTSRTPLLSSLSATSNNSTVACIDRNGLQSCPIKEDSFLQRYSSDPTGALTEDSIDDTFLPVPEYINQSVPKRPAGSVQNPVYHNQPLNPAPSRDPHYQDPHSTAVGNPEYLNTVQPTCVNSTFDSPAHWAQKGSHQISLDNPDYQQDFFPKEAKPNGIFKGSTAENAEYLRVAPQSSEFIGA
Sequence of Platelet-derived growth factor receptor alpha (P16234 whole entry): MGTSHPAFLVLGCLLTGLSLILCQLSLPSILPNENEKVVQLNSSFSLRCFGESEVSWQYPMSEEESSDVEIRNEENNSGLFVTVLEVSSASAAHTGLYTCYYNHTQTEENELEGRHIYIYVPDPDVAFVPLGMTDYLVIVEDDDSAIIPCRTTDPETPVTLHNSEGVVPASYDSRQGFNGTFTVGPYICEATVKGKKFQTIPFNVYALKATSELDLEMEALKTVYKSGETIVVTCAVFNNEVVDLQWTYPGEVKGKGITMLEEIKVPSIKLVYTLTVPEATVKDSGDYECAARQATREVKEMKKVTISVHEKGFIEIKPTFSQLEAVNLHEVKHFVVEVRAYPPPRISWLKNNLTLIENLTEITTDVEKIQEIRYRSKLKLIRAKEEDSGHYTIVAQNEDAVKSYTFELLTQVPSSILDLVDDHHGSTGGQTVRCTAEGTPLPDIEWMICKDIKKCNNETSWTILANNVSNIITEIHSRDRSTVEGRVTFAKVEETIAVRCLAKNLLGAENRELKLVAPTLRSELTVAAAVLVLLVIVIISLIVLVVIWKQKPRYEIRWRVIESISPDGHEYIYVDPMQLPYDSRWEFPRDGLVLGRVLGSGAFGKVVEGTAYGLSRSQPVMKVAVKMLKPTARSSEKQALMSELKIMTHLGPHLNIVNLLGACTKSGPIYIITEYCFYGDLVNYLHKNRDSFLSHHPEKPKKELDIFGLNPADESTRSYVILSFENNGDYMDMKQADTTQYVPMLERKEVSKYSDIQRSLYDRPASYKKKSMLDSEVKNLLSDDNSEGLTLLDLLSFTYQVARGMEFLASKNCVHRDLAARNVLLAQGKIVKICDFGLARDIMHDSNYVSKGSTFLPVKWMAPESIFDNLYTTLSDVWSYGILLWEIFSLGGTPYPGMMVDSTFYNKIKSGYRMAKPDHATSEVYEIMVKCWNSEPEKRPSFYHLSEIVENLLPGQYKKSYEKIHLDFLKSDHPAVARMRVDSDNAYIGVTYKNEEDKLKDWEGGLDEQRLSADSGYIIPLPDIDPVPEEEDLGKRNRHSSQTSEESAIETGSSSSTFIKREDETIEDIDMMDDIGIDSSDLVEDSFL
Description for A549: Antiproliferative activity against human A549 cells after 72 hrs by MTT assay
Description for MKN-45: Antiproliferative activity against human MKN45 cells after 72 hrs by MTT assay

As to `COc1cc2c(Oc3ccc(NC(=O)c4nc5ccccc5n(-c5ccc(F)cc5)c4=O)cc3F)ccnc2cc1OCCCN1CCOCC1`, the IC50 in the experiment on HT-29 was 110 nM; in the experiment on U-87 MG it was 810 nM; in the experiment with A549, 30 nM; with NCI-H460, 140 nM; in the experiment on MKN-45, 26 nM; in experiment [1], 2.35 nM.
`COc1cc2c(Oc3ccc(NC(=O)c4nc5ccccc5n(-c5ccc(F)cc5)c4=O)cc3F)ccnc2cc1OCCCN1CCC(C)CC1` came in with an IC50 in experiment [1] of 3.57 nM.
Regarding `COc1ccc(-n2c(=O)c(C(=O)Nc3ccc(Oc4ccnc5cc(OCCCN6CCOCC6)c(OC)cc45)c(F)c3)nc3ccccc32)cc1`, the IC50 with HT-29 is 690 nM; in the experiment with U-87 MG it was over 32000 nM; in the experiment with A549 it was 1720 nM; with NCI-H460, 1850 nM; with MKN-45 it was 660 nM.
Take `COc1cc2c(Oc3ccc(NC(=O)c4nc5ccccc5n(-c5cccc(Cl)c5)c4=O)cc3F)ccnc2cc1OCCCN1CCOCC1`: the IC50 with HT-29 worked out at 330 nM; in the experiment on U-87 MG, 980 nM; with A549 it was 240 nM; with NCI-H460 it was 530 nM; with MKN-45 it was 340 nM.
On the same counts, the results for `COc1cc2c(Oc3ccc(NC(=O)c4nc5ccccc5n(-c5ccc(C)cc5)c4=O)cc3F)ccnc2cc1OCCCN1CCOCC1` are 1030 nM, 4170 nM, 2160 nM, 1120 nM and 580 nM.
As to `COc1cc2c(Oc3ccc(NC(=O)c4nc5ccccc5n(-c5ccccc5F)c4=O)cc3F)ccnc2cc1OCCCN1CCOCC1`, the IC50 came to 170 nM with HT-29; 650 nM with U-87 MG; 33 nM with A549; 230 nM in the experiment on NCI-H460; 29 nM with MKN-45; 4.52 nM in [1].
In the case of `COc1cc2c(Oc3ccc(NC(=O)c4nc5ccccc5n(-c5ccc(OC(F)(F)F)cc5)c4=O)cc3F)ccnc2cc1OCCCN1CCOCC1`, the IC50 with HT-29 stood at 200 nM; in the experiment with U-87 MG, 1220 nM; in the experiment on A549, 330 nM; in the experiment on NCI-H460, 290 nM; in the experiment on MKN-45, 260 nM.
For the compound `COc1cc2c(Oc3ccc(NC(=O)c4nc5ccccc5n(-c5ccc(Cl)cc5)c4=O)cc3F)ccnc2cc1OCCCN1CCOCC1`, the IC50 with HT-29 is 160 nM; in the experiment with U-87 MG, 1060 nM; with A549 it was 42 nM; with NCI-H460 it was 280 nM; in the experiment with MKN-45, 29 nM; in experiment [1], 6.76 nM.
Consider `COc1cc2c(Oc3ccc(NC(=O)c4nc5ccccc5n(-c5ccccc5F)c4=O)cc3F)ccnc2cc1OCCCN1CCC(C)CC1`, for which the half-inhibitory concentration (IC50) in [1] is 13.1 nM.
For `COc1cc2c(Oc3ccc(NC(=O)c4nc5ccccc5n(-c5ccc(Cl)cc5Cl)c4=O)cc3F)ccnc2cc1OCCCN1CCOCC1`, the IC50 worked out at 590 nM with HT-29; 5040 nM in the experiment on U-87 MG; 170 nM in the experiment on A549; 640 nM with NCI-H460; 75 nM in the experiment with MKN-45.
The compound `COc1cc2c(Oc3ccc(NC(=O)c4nc5ccccc5n(-c5ccc(F)cc5)c4=O)cc3F)ccnc2cc1OCCCN1CCCCC1` returned an IC50 in experiment [1] of 8.03 nM.
With `COc1cc2c(Oc3ccc(NC(=O)c4nc5ccccc5n(-c5ccc(F)cc5)c4=O)cc3F)ccnc2cc1OCCCN1CCN(C)CC1`, the IC50 amounted to 82.6 nM in [2]; 19.1 nM in experiment [3]; 2.45 nM in [4]; 269 nM in experiment [5]; 2840 nM in experiment [6]; 0.9 nM in experiment [1]. Besides, the IC50 in [7] was determined as 152 nM; in [8], 981 nM.
For `COc1cc2c(Oc3ccc(NC(=O)c4nc5ccccc5n(-c5ccccc5Cl)c4=O)cc3F)ccnc2cc1OCCCN1CCOCC1`, the IC50 in the experiment on HT-29 amounted to 150 nM; in the experiment on U-87 MG, 1500 nM; in the experiment on A549 it was 50 nM; in the experiment on NCI-H460, 140 nM; in the experiment on MKN-45 it was 25 nM; in [1], 3.23 nM.
With `COc1cc2c(Oc3ccc(NC(=O)c4nc5ccccc5n(-c5cccc(F)c5)c4=O)cc3F)ccnc2cc1OCCCN1CCOCC1`, the IC50 turned out to be 200 nM with HT-29; 1850 nM with U-87 MG; 310 nM in the experiment on A549; 400 nM in the experiment on NCI-H460; 390 nM in the experiment on MKN-45.
Take `COc1cc2c(Oc3ccc(NC(=O)c4nc5ccccc5n(-c5ccc(Br)cc5)c4=O)cc3F)ccnc2cc1OCCCN1CCOCC1`: the IC50 in the experiment on HT-29 was determined as 170 nM; with U-87 MG, 1170 nM; with A549 it was 320 nM; in the experiment with NCI-H460, 210 nM; with MKN-45 it was 110 nM.
As to `COc1ccc(-n2c(=O)c(C(=O)Nc3ccc(Oc4ccnc5cc(OCCCN6CCOCC6)c(OC)cc45)c(F)c3)nc3ccccc32)c(OC)c1`, the IC50 worked out at 1290 nM with HT-29; 16200 nM with U-87 MG; 5110 nM in the experiment on A549; 2050 nM in the experiment on NCI-H460; 860 nM in the experiment on MKN-45.
As to `COc1cc2c(Oc3ccc(NC(=O)c4nc5ccccc5n(-c5ccccc5C(F)(F)F)c4=O)cc3F)ccnc2cc1OCCCN1CCOCC1`, the IC50 is 190 nM in the experiment on HT-29; 1780 nM with U-87 MG; 220 nM in the experiment with A549; 280 nM in the experiment on NCI-H460; 560 nM in the experiment on MKN-45.
On the same counts, the results for `COc1cc2c(Oc3ccc(NC(=O)c4nc5ccccc5n(-c5ccccc5)c4=O)cc3F)ccnc2cc1OCCCN1CCOCC1` are 200 nM, 1720 nM, 410 nM, 1040 nM and 82 nM.
